Results: US20240173334A1, “Oral (17-ß)-3-Oxoandrost-4-EN-17-YL Tridecanoate Therapy” (Lipocine Inc., priority 2018, published 2024)

Legend:
[1] = multiple-dose steady-state PK of dosage form B7 in hypogonadal males (Example 5); type: in vivo, human (hypogonadal males)
Method: A multi-center, open-label, randomized, 4-treatment arm, multiple-dose study was performed to evaluate the safety, tolerability, and the steady-state PK parameters of the oral composition comprising substantially noncrystalline form of (17-ß)-3-oxoandrost-4-en-17-yl tridecanoate (dosage form B7) in hypogonadal males (N=48). The treatments were following as: • Treatment A: 500 mg of (17-ß)-3-oxoandrost-4-en-17-yl tridecanoate as androst-4-en-17β-ol-3-one ester in dosage form B7 in QD. • Treatment B: 750 mg of (17-ß)-3-oxoandrost-4-en-17-yl tridecanoate as androst-4-en-17β-ol-3-one ester in dosage form B7 in QD. • Treatment C: 1000 mg of (17-ß)-3-oxoandrost-4-en-17-yl tridecanoate as androst-4-en-17β-ol-3-one ester in dosage form B7 in QD. • Treatment D: 1250 mg of (17-ß)-3-oxoandrost-4-en-17-yl tridecanoate as androst-4-en-17β-ol-3-one ester in dosage form B7 in QD.
(§1) The steady state PK parameters were obtained post the treatment initiation.
The evaluation of the relation between Cavg or Cmax and dose amount of (17-ß)-3-oxoandrost-4-en-17-yl tridecanoate was performed using the group mean values of Cavg and Cmax of androst-4-en-17β-ol-3-one obtained at the steady state.

[2] = ascending multiple-dose steady-state PK of undecanoate in dosage form B1 in hypogonadal males (Example 6); type: in vivo, human (adult hypogonadal male subjects)
Method: A single-center, randomized, double-blind, placebo-controlled, ascending multiple-dose, serial-group study was conducted to evaluate the safety, tolerability, and the steady-state PK parameters of an oral composition comprising substantially noncrystalline form of (17-ß)-3-oxoandrost-4-en-17-yl undecanoate in adult hypogonadal male subjects (N=84). The treatments were following as: • Treatment A: 75 mg of (17-ß)-3-oxoandrost-4-en-17-yl undecanoate as androst-4-en-17β-ol-3-one ester based on dosage form B1 in BID. • Treatment B: 150 mg of (17-ß)-3-oxoandrost-4-en-17-yl undecanoate as androst-4-en-17β-ol-3-one ester based on dosage form B1 in BID. • Treatment C: 225 mg of (17-ß)-3-oxoandrost-4-en-17-yl undecanoate as androst-4-en-17β-ol-3-one ester based on dosage form B1 in BID. • Treatment D: 300 mg of (17-ß)-3-oxoandrost-4-en-17-yl undecanoate as androst-4-en-17β-ol-3-one ester based on dosage form B1 in BID. • Treatment E: placebo capsules in BID
as §1

[3] = 500 mg QD, dosage form B7, N=12
[4] = 750 mg QD, dosage form B7, N=11
[5] = 1000 mg QD, dosage form B7, N=12
[6] = 1250 mg QD, dosage form B7, N=12
[7] = 75 mg BID, dosage form B1, N=16
[8] = 150 mg BID, dosage form B1, N=16
[9] = 225 mg BID, dosage form B1, N=16
[10] = 300 mg BID, dosage form B1, N=9

Compound	Cavg of androst-4-en-17β-ol-3-one, mean (±SD) [1, 3]	Cmax of androst-4-en-17β-ol-3-one, mean (±SD) [1, 3]	Cavg of androst-4-en-17β-ol-3-one, mean (±SD) [1, 4]	Cmax of androst-4-en-17β-ol-3-one, mean (±SD) [1, 4]	Cavg of androst-4-en-17β-ol-3-one, mean (±SD) [1, 5]	Cmax of androst-4-en-17β-ol-3-one, mean (±SD) [1, 5]	Cavg of androst-4-en-17β-ol-3-one, mean (±SD) [1, 6]	Cmax of androst-4-en-17β-ol-3-one, mean (±SD) [1, 6]	Cavg of androst-4-en-17β-ol-3-one, mean (±SD) [2, 7]	Cmax of androst-4-en-17β-ol-3-one, mean (±SD) [2, 7]	Cavg of androst-4-en-17β-ol-3-one, mean (±SD) [2, 8]	Cmax of androst-4-en-17β-ol-3-one, mean (±SD) [2, 8]	Cavg of androst-4-en-17β-ol-3-one, mean (±SD) [2, 9]	Cmax of androst-4-en-17β-ol-3-one, mean (±SD) [2, 9]	Cavg of androst-4-en-17β-ol-3-one, mean (±SD) [2, 10]	Cmax of androst-4-en-17β-ol-3-one, mean (±SD) [2, 10]
CCCCCCCCCCCCC(=O)O[C@H]1CC[C@H]2[C@@H]3CCC4=CC(=O)CC[C@]4(C)[C@H]3CC[C@]12C [[(8R,9S,10R,13S,14S,17S)-10,13-dimethyl-3-oxo-1,2,6,7,8,9,11,12,14,15,16,17-dodecahydrocyclopenta[a]phenanthren-17-yl] tridecanoate]	307 (157) ng/dL	608 (318) ng/dL	352 (41) ng/dL	822 (254) ng/dL	405 (148) ng/dL	930 (326) ng/dL	465 (201) ng/dL	1233 (695) ng/dL								
CCCCCCCCCCC(=O)O[C@H]1CC[C@H]2[C@@H]3CCC4=CC(=O)CC[C@]4(C)[C@H]3CC[C@]12C [(17-ß)-3-oxoandrost-4-en-17-yl undecanoate]									270 (94) ng/dL	544 (169) ng/dL	319 (77) ng/dL	792 (276) ng/dL	446 (161) ng/dL	1169 (356) ng/dL	582 (184) ng/dL	1644 (644) ng/dL
